Data on 4 compounds can be found in ChEMBL document CHEMBL4354798, “Synthetic Approaches to the New Drugs Approved During 2017” (J Med Chem, 2019).

Series [1] can be described thus: Half life in human infected with HIV 20 to 40 mg, po for 7 days. It counts as ADME, organism-based. As to conditions: in vivo.
A short description of series [2]: Antitumour activity in human FLT3 positive AML patient assessed as increase in survival time at 50 mg, po bid for 14 days co-treated with CTX relative to control. Type of series: functional.
A short description of series [3]: Half life in human Plasma. It counts as ADME, cell-free.

Where only a bound is given, the exact number is not on record here.

Consider `N#Cc1cc(Cl)cc(Oc2c(Br)ccc(CC(=O)Nc3ccc(S(N)(=O)=O)cc3Cl)c2F)c1` [DEPULFAVIRINE], for which the half-life in series [1] is greater than 120 h.

Take `CCC(=O)[N-]S(=O)(=O)c1ccc(NC(=O)Cc2ccc(Br)c(Oc3cc(Cl)cc(C#N)c3)c2F)c(Cl)c1.[Na+]` [ELSULFAVIRINE SODIUM]: in series [1], the half-life is 2 h.

Turning to `CO[C@@H]1[C@H](N(C)C(=O)c2ccccc2)C[C@H]2O[C@]1(C)n1c3ccccc3c3c4c(c5c6ccccc6n2c5c31)C(=O)NC4` [MIDOSTAURIN], the Activity in series [2] was 80%.

With `Cc1cccc(C)c1N(CC(=O)Nc1ccc(-c2ncon2)cc1)C(=O)C1CCS(=O)(=O)CC1` [AMENAMEVIR], in series [3], the half-life was 8 h.

A word on the half-life: it is how long it takes for the measured level to halve. A lower half-life goes with fast loss.
